Columns and labels:
Format in all cases: in vivo
Settings in all cases: 100 mpk IP; LPS-challenged mice, plasma at 6.5 h; unpaired t-test vs vehicle
IL-15 = experiment: Acute LPS-induced sepsis in C57BL/6 mice: IL-15 cytokine detection assay
eotaxin = experiment: Acute LPS-induced sepsis in C57BL/6 mice: eotaxin cytokine detection assay
IFNγ = experiment: Acute LPS-induced sepsis in C57BL/6 mice: IFNγ cytokine detection assay
MIP-1a(CCL3) = experiment: Acute LPS-induced sepsis in C57BL/6 mice: MIP-1a(CCL3) cytokine detection assay
IL-10 = experiment: Acute LPS-induced sepsis in C57BL/6 mice: IL-10 cytokine detection assay
IL-7 = experiment: Acute LPS-induced sepsis in C57BL/6 mice: IL-7 cytokine detection assay
IL-17 = experiment: Acute LPS-induced sepsis in C57BL/6 mice: IL-17 cytokine detection assay
From the text: FIG. 19 is a graph showing the results of an IL-17 cytokine detection assay in samples collected from mouse subjects after administration of compounds of the present disclosure.
(§1) The primary objective of this study was to collect plasma samples of lipopolysaccharide (LPS) challenged C57BL/6 mice after dose of test compounds to provide a cytokine profile as impacted by prophylactic treatments. This study models acute sepsis, which is a systemic inflammatory syndrome initiated by Gram-negative and Gram-positive bacteria and fungi which infect the lungs, abdomen, bloodstream, and renal or genitourinary tracts. Sepsis patients ultimately die of multiorgan failure which is caused by extensive tissue hypo-oxygenation due to ongoing microvascular leakage, disseminated intravascular coagulation, compromised energy production, and metabolic alterations. Sepsis is characterized by an early systemic inflammatory response phase featuring symptoms, such as tachycardia, fever, hyperventilation, and activation of the complement and coagulation cascades. However, it is now appreciated that a compensatory anti-inflammatory response phase follows, characterized by neuroendocrine-mediated immunosuppression. Since these processes are the result of interaction between cells of inflammation and organs, investigation of the treatment of this syndrome requires the use of intact animal models. The use of ten mice per group allows useful statistical modelling of the results.
(§2) For the data shown in Table 2A, 103 mice (female, 18-22 gram, C57BL/6) were purchased from ENVIGO. The mice were housed in 20 cages of 5 mice per cage with 1 cage of 3 mice as extra. The cages had filter tops and autoclaved bedding, and the animals were placed in quarantine with daily inspection. The treatment groups are detailed in Table 2A below. 10 mice were included in each group. […] MC=methyl cellulose.
(§3) For the data shown in Table 2B, 185 mice (female, 18-22 gram, C57BL/6) were purchased from ENVIGO. The mice were housed in 37 cages of 5 mice per cage. The cages had filter tops and autoclaved bedding, and the animals were placed in quarantine with daily inspection. The treatment groups are detailed in Table 2B below. 10 mice were included in each group. The mice were dosed by oral gavage (P0) at 10 ml/kg as per the table below. MC=methyl cellulose.
(§4) At T=0 h, the mice were dosed with one of the test compounds as described in the above table.
(§5) At T=0.5 h, the mice were injected IP with 1.5 mg/kg […] (Sigma).
At T=6.5 h, all mice were anesthetized and exsanguinated into pre-chilled EDTA-treated tubes. […]
A 32-plex cytokine panel was obtained from Eve Technologies. Each cytokine was assessed based against a 7 point curve range in duplicate. […]

IL-12(p70) = experiment: Acute LPS-induced sepsis in C57BL/6 mice: IL-12(p70) cytokine detection assay
From the text: FIG. 16 is a graph showing the results of an IL-12(p70) cytokine detection assay in samples collected from mouse subjects after administration of compounds of the present disclosure.
as §1, §2, §3, §4, §5
At T=6.5 h, all mice were anesthetized and exsanguinated into pre-chilled EDTA-treated tubes. The blood was processed to plasma which was stored in labeled 0.5 polypropylene snap-cap tubes (0.5 mL Eppendorf Safe-Lock Tubes (Fisher Scientific) at −80° C.
Preparation of vehicle: 1.0 gram of methyl cellulose (Sigma) was dissolved in 200 mL of water (USP purified) to make a solution of 0.5% methyl cellulose in water. Preparation of LPS solution: 6 mg of LPS (from Escherichia Coli 055:B5, Cat #L2880, Sigma Lot #057m4013) was dissolved in 20 ml of saline to give a LPS solution of 0.3 mg/ml. All mice were injected with 5 ml/kg (1.5 mg/kg) at the scheduled time by intraperitoneal injection.
A 32-plex cytokine panel was obtained from Eve Technologies. Each cytokine was assessed based against a 7 point curve range in duplicate. The average of the two replicate analyses was used for statistics. Unpaired t-tests were performed using Excel™ contrasting vehicle against each treatment group. One star indicates P<0.05. […]

G-CSF = experiment: Acute LPS-induced sepsis in C57BL/6 mice: G-CSF cytokine detection assay
IL-3 = experiment: Acute LPS-induced sepsis in C57BL/6 mice: IL-3 cytokine detection assay

CC(O)(c1sc2ccccc2c1N)C(F)(F)F (stereo not shown) [Compound I-1, 2-(3-aminobenzo[b]thiophen-2-yl)-1,1,1-trifluoropropan-2-ol]
IL-15: significant cytokine change vs. vehicle (IL-15): ** (Two stars indicates P<0.01) | Eotaxin: significant cytokine change vs. vehicle (eotaxin): * (One star indicates P<0.05) | IFNy: significant cytokine change vs. vehicle (IFNγ): **** (Four stars indicates P<0.0001) | MIP-1a: significant cytokine change vs. vehicle (MIP-1a(CCL3)): ** (Two stars indicates P<0.01) | IL-10: significant cytokine change vs. vehicle (IL-10): **** (Four stars indicates P<0.0001) | IL-7: significant cytokine change vs. vehicle (IL-7): * (One star indicates P<0.05) | IL-17: significant cytokine change vs. vehicle (IL-17): *** (Three stars indicates P<0.001) | IL-12 (p70): significant cytokine change vs. vehicle (IL-12(p70)): * (One star indicates P<0.05) | G-CSF: significant cytokine change vs. vehicle (G-CSF): * (One star indicates P<0.05) | IL-3: significant cytokine change vs. vehicle (IL-3): **** (Four stars indicates P<0.0001)
